US20230391768A2, “IMIDAZOPYRIDINE DERIVATIVES AND AZA-IMIDAZOPYRIDINE DERIVATIVES AS JANUS KINASE 2 INHIBITORS AND USES THEREOF” (Dana-Farber Cancer Institute, Inc., priority 2018, published 2023)

Tests used:
Assay in all cases: KINOMEscan
Type in all cases: binding
[1] = target: CAMK1D (Homo sapiens (Human), UniProt Q8IU85); conditions: read-out: percent of control
Procedure: (§1) In vitro profiling of Compound I-2 (1 μM) was performed using the DiscoveRx KINOMEscan® platform.

[2] = target: PRKCH (Homo sapiens (Human), UniProt P24723); conditions: read-out: percent of control
Sequence of PRKCH (P24723 whole entry): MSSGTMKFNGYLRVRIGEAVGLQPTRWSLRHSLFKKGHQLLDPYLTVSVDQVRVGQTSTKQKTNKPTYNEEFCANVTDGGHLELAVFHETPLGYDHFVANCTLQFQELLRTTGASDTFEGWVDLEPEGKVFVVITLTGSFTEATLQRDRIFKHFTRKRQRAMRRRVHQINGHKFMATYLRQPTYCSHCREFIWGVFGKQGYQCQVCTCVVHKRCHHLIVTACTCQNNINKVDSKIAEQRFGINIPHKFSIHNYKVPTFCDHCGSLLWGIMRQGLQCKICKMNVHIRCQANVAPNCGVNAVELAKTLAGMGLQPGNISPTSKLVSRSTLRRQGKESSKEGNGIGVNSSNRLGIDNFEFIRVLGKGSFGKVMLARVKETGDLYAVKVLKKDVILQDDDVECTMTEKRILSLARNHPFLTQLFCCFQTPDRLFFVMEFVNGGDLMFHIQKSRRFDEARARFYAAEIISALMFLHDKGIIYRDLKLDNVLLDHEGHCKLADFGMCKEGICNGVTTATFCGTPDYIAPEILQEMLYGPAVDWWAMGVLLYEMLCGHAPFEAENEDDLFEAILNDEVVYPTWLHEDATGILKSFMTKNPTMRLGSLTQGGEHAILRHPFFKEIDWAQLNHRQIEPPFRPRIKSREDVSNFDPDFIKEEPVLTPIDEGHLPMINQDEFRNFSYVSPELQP
Procedure: as §1

[3] = target: SNRK (Homo sapiens (Human), UniProt Q9NRH2); conditions: read-out: percent of control
Sequence of SNRK (Q9NRH2 whole entry): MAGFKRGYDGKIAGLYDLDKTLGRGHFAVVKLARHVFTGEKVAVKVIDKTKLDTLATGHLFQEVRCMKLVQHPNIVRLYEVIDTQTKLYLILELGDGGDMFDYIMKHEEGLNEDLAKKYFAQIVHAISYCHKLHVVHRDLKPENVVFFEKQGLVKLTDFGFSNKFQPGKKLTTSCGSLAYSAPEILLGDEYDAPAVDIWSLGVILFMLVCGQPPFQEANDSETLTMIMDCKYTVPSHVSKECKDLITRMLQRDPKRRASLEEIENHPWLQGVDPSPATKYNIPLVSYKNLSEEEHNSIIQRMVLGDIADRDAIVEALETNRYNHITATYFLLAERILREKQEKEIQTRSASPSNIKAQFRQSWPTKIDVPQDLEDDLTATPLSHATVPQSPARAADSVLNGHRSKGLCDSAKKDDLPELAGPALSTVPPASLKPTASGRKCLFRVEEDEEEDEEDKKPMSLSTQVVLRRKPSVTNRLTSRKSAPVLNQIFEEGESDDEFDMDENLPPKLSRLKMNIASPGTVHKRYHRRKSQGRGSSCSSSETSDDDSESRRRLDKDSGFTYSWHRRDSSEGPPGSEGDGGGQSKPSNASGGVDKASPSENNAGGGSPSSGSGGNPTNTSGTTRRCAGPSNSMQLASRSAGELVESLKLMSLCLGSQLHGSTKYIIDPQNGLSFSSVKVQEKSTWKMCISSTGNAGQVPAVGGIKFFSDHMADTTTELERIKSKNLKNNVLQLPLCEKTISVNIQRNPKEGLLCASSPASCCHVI
Procedure: as §1

[4] = target: CDK4 (Homo sapiens (Human), UniProt P11802); conditions: read-out: percent of control
Sequence of CDK4 (P11802 whole entry): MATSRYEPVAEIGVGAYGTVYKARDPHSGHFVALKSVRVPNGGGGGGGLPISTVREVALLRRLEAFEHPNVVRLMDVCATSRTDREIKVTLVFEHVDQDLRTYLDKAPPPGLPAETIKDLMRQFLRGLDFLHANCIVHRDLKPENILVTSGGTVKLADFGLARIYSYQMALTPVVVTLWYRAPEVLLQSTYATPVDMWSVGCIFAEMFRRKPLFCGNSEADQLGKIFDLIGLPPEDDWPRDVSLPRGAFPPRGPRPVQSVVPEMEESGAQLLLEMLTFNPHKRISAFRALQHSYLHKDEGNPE
Procedure: as §1

[5] = target: PCTK1 (Homo sapiens (Human), UniProt Q00536); conditions: read-out: percent of control
Procedure: as §1

[6] = target: LZK (Homo sapiens (Human), UniProt O43283); conditions: read-out: percent of control
Procedure: as §1

[7] = target: ALK(L1196M) (Homo sapiens (Human), UniProt Q9UM73, L1196M); conditions: read-out: percent of control
Procedure: as §1

[8] = target: PYK2 (Homo sapiens (Human), UniProt Q14289); conditions: read-out: percent of control
Procedure: as §1

[9] = target: NEK10 (Homo sapiens (Human), UniProt Q6ZWH5); conditions: read-out: percent of control
Procedure: as §1

[10] = target: MYO3B (Homo sapiens (Human), UniProt Q8WXR4); conditions: read-out: percent of control
Procedure: as §1

[11] = target: FES (Homo sapiens (Human), UniProt P07332); conditions: read-out: percent of control
Sequence of FES (P07332 whole entry): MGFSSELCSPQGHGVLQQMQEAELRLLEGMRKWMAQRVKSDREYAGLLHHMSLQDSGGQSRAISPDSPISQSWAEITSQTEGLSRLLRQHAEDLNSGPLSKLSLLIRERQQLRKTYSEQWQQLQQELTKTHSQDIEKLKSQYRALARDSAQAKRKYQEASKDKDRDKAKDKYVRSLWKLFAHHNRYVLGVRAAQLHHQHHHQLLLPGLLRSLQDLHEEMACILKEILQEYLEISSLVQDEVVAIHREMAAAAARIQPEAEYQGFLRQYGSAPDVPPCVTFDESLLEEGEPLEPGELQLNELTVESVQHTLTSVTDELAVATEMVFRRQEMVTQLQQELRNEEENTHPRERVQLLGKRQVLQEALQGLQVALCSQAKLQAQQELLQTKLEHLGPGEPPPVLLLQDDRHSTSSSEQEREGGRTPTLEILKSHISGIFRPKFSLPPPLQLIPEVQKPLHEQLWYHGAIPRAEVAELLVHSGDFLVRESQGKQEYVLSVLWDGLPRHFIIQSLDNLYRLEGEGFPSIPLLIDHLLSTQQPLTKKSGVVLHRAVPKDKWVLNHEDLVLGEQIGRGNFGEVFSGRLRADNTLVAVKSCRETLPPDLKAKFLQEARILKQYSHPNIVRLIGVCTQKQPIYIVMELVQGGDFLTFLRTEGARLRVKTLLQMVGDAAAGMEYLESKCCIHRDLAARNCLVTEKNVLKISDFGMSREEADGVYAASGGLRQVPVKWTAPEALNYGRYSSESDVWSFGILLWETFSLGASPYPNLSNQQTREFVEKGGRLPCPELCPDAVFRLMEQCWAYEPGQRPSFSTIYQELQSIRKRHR
Procedure: as §1

[12] = target: WEE2 (Homo sapiens (Human), UniProt P0C1S8); conditions: read-out: percent of control
Procedure: as §1

[13] = target: ACVR2A (Homo sapiens (Human), UniProt P27037); conditions: read-out: percent of control
Procedure: as §1

[14] = target: FGFR4 (Homo sapiens (Human), UniProt P22455); conditions: read-out: percent of control
Sequence of FGFR4 (P22455 22-802): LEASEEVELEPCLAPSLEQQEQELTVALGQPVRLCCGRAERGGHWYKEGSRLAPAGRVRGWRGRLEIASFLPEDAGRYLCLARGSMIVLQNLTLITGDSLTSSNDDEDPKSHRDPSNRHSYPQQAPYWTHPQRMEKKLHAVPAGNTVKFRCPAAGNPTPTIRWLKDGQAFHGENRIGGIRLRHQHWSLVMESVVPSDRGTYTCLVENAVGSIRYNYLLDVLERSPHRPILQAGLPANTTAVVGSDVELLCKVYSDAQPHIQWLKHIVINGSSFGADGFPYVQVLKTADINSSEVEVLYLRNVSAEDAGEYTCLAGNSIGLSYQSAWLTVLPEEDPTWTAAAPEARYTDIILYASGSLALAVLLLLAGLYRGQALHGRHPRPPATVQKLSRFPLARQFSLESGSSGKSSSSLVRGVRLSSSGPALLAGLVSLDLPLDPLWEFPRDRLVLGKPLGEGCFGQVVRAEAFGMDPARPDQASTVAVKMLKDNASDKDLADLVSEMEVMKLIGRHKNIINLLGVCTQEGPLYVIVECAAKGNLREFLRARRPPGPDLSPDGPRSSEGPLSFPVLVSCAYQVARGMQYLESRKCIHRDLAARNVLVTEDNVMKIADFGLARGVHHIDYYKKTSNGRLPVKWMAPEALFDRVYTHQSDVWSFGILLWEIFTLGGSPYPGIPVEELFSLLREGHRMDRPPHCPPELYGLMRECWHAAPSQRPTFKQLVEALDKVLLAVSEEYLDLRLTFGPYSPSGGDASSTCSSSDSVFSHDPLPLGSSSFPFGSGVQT
Procedure: as §1

[15] = target: STK33 (Homo sapiens (Human), UniProt Q9BYT3); conditions: read-out: percent of control
Procedure: as §1

[16] = target: TIE1 (Homo sapiens (Human), UniProt P35590); conditions: read-out: percent of control
Procedure: as §1

[17] = target: p38-alpha (Homo sapiens (Human), UniProt Q16539); conditions: read-out: percent of control
Sequence of p38-alpha (Q16539 whole entry): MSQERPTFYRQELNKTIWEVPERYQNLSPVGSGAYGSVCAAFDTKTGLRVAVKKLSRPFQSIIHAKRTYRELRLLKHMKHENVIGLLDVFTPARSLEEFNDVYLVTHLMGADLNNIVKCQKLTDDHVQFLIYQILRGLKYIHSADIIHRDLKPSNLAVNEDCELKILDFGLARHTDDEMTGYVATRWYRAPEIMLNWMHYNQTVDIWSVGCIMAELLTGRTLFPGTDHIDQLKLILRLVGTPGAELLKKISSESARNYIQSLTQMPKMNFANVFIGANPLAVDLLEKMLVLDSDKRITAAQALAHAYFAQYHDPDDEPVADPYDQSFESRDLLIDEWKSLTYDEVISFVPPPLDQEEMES
Procedure: as §1

[18] = target: LOK (Homo sapiens (Human), UniProt O94804); conditions: read-out: percent of control
Procedure: as §1

[19] = target: NIM1 (Homo sapiens (Human), UniProt Q8IY84); conditions: read-out: percent of control
Procedure: as §1

[20] = target: EPHB4 (Homo sapiens (Human), UniProt P54760); conditions: read-out: percent of control
Procedure: as §1

[21] = target: CDK7 (Homo sapiens (Human), UniProt P50613); conditions: read-out: percent of control
Procedure: as §1

[22] = target: BIKE (Homo sapiens (Human), UniProt Q9NSY1); conditions: read-out: percent of control
Procedure: as §1

[23] = target: ABL1(Q252H)-nonphosphorylated (Homo sapiens (Human), UniProt P00519, Q252H); conditions: read-out: percent of control
Procedure: as §1

[24] = target: ERBB4 (Homo sapiens (Human), UniProt Q15303); conditions: read-out: percent of control
Procedure: as §1

[25] = target: AKT1 (Homo sapiens (Human), UniProt P31749); conditions: read-out: percent of control
Procedure: as §1

[26] = target: BUB1 (Homo sapiens (Human), UniProt O43683); conditions: read-out: percent of control
Procedure: as §1

[27] = target: ZAP70 (Homo sapiens (Human), UniProt P43403); conditions: read-out: percent of control
Sequence of ZAP70 (P43403 whole entry): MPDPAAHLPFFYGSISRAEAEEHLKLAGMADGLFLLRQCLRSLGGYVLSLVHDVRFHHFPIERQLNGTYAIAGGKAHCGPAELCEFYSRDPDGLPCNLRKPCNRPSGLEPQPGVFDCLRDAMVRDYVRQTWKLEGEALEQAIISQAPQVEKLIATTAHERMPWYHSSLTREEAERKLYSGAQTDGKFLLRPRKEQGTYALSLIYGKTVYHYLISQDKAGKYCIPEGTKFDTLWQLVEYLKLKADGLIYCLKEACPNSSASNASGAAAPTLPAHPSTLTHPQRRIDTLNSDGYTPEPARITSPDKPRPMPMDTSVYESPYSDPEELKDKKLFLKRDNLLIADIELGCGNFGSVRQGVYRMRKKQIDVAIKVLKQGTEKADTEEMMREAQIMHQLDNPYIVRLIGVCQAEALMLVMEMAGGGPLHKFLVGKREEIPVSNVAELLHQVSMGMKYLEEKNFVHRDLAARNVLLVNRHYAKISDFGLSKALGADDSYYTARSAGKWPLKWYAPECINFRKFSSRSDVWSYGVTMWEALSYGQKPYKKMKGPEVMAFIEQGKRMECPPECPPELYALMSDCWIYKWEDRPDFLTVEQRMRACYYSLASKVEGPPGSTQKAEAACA
Procedure: as §1

[28] = target: CDK4-cyclinD3 (Homo sapiens (Human), UniProt P11802); conditions: read-out: percent of control
Sequence of CDK4-cyclinD3 (P11802 whole entry): as the sequence (P11802 whole entry) above
Sequence of CDK4-cyclinD3 (P30281 whole entry partner): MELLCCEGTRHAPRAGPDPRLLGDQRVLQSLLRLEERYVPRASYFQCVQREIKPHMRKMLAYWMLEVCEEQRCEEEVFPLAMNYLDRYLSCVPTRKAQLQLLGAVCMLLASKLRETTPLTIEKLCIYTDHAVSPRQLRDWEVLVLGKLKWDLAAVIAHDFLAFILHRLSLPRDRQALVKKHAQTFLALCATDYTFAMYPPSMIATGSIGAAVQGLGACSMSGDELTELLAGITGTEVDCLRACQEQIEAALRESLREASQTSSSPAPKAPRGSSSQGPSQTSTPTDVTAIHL
Procedure: as §1

[29] = target: JAK3(JH1domain-catalytic) (Homo sapiens (Human), UniProt P52333); conditions: for remaining binding at 1 µM: JAK3(JH1domain-catalytic), read-out: percent of control
Sequence of JAK3(JH1domain-catalytic) (P52333 822-1111): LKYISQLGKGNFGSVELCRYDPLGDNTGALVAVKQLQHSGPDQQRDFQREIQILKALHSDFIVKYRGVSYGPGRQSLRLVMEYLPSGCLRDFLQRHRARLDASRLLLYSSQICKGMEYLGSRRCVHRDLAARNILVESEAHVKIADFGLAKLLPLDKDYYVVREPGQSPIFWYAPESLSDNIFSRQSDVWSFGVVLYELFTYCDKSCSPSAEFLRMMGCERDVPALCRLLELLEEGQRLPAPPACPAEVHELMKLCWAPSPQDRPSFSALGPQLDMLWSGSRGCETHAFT
Procedure: as §1

[30] = target: KIT(V559D,V654A) (Homo sapiens (Human), UniProt P10721, V559D/V654A); conditions: read-out: percent of control
Procedure: as §1

[31] = target: BRAF (Homo sapiens (Human), UniProt P15056); conditions: read-out: percent of control
Procedure: as §1

[32] = target: STK36 (Homo sapiens (Human), UniProt Q9NRP7); conditions: read-out: percent of control
Procedure: as §1

[33] = target: MEK5 (Homo sapiens (Human), UniProt Q13163); conditions: read-out: percent of control
Procedure: as §1

[34] = target: DDR2 (Homo sapiens (Human), UniProt Q16832); conditions: read-out: percent of control
Procedure: as §1

[35] = target: FLT3 (N841I) (Homo sapiens (Human), UniProt P36888, N841I); conditions: read-out: percent of control
Procedure: as §1

[36] = target: NEK2 (Homo sapiens (Human), UniProt P51955); conditions: read-out: percent of control
Procedure: as §1

[37] = target: IGF1R (Homo sapiens (Human), UniProt P08069); conditions: read-out: percent of control
Procedure: as §1

[38] = target: FLT4 (Homo sapiens (Human), UniProt P35916); conditions: read-out: percent of control
Procedure: as §1

| SMILES | remaining binding at 1 µM [1] | remaining binding at 1 µM [2] | remaining binding at 1 µM [3] | remaining binding at 1 µM [4] | remaining binding at 1 µM [5] | remaining binding at 1 µM [6] | remaining binding at 1 µM [7] | remaining binding at 1 µM [8] | remaining binding at 1 µM [9] | remaining binding at 1 µM [10] | remaining binding at 1 µM [11] | remaining binding at 1 µM [12] | remaining binding at 1 µM [13] | remaining binding at 1 µM [14] | remaining binding at 1 µM [15] | remaining binding at 1 µM [16] | remaining binding at 1 µM [17] | remaining binding at 1 µM [18] | remaining binding at 1 µM [19] | remaining binding at 1 µM [20] | also measured |
| --- | --- | --- | --- | --- | --- | --- | --- | --- | --- | --- | --- | --- | --- | --- | --- | --- | --- | --- | --- | --- | --- |
| CCN1CCN(Cc2cc(NC(=O)c3ccc(C)c(-c4ccc5nc(NC(=O)C6CC6)cn5n4)c3)cc(C(F)(F)F)c2)CC1 [Compound I-2, 3-(2-(cyclopropanecarboxamido)imidazo[1,2-b]pyridazin-6-yl)-N-(3-((4-ethylpiperazin-1-yl)methyl)-5-(trifluoromethyl)phenyl)-4-methylbenzamide] | 97% | 86% | 84% | 46% | 16% | 48% | 9.9% | 3.2% | 75% | 80% | 12% | 100% | 63% | 100% | 70% | 0% | 8.4% | 0% | 99% | 1.3% | remaining binding at 1 µM [21]: 0.55%; remaining binding at 1 µM [22]: 96%; remaining binding at 1 µM [23]: 0%; remaining binding at 1 µM [24]: 71%; remaining binding at 1 µM [25]: 90%; remaining binding at 1 µM [26]: 100%; remaining binding at 1 µM [27]: 66%; remaining binding at 1 µM [28]: 41%; remaining binding at 1 µM [29]: 0%; selectivity for JAK3 over JAK2, JAK1, and TYK2 ([29]; KINOMEscan, 1 μM): more selective for JAK3 over JAK2, JAK1, and TYK2; remaining binding at 1 µM [30]: 6.1%; remaining binding at 1 µM [31]: 11%; remaining binding at 1 µM [32]: 66%; remaining binding at 1 µM [33]: 21%; remaining binding at 1 µM [34]: 0.1%; remaining binding at 1 µM [35]: 0%; remaining binding at 1 µM [36]: 84%; remaining binding at 1 µM [37]: 0.7%; remaining binding at 1 µM [38]: 0.05% |
| CCN1CCN(Cc2cc(NC(=O)c3ccc(C)c(-c4ccc5nc(NC(=O)C6CC6)cn5c4)c3)cc(C(F)(F)F)c2)CC1 [Compound I-6, 3-(2-(cyclopropanecarboxamido)imidazo[1,2-a]pyridin-6-yl)-N-(3-((4-ethylpiperazin-1-yl)methyl)-5-(trifluoromethyl)phenyl)-4-methylbenzamide] | 93% | 100% | 99% | 36% | 28% | 100% | 21% | 4.1% | 62% | 49% | 0.95% | 95% | 100% | 100% | 100% | 4% | 26% | 0% | 88% | 0% | remaining binding at 1 µM [21]: 1%; remaining binding at 1 µM [22]: 100%; remaining binding at 1 µM [23]: 0.15%; remaining binding at 1 µM [24]: 53%; remaining binding at 1 µM [25]: 90%; remaining binding at 1 µM [26]: 97%; remaining binding at 1 µM [27]: 30%; remaining binding at 1 µM [28]: 64%; remaining binding at 1 µM [29]: 0%; remaining binding at 1 µM [30]: 7.4%; remaining binding at 1 µM [31]: 21%; remaining binding at 1 µM [32]: 100%; remaining binding at 1 µM [33]: 17%; remaining binding at 1 µM [34]: 0%; remaining binding at 1 µM [35]: 0%; remaining binding at 1 µM [36]: 100%; remaining binding at 1 µM [37]: 11%; remaining binding at 1 µM [38]: 0.3% |
